Laboratory results from PMC10697071, “Bio-guided isolation of alpha-glucosidase inhibitory compounds from Vietnamese liverwort Marchantia polymorpha: in vitro and in silico studies” (RSC Advances, 2023).
“Also recorded” adds a separate entry of the source.

Columns and labels:
yeast alpha-glucosidase = test: Alpha-glucosidase inhibition assay; type: biochemical; details: for IC50: yeast alpha-glucosidase
Text: Evaluation of the inhibitory activity of 1–12 against yeast alpha-glucosidase followed a previous procedure.[37]

alpha-glucosidase = test: Kinetic study of alpha-glucosidase inhibition (Lineweaver–Burk plots); type: biochemical
Procedure: To examine the inhibition mechanism, activity at concentrations of 0, 3.61, 7.22, 14.44, and 28.88 μM of 2 was recorded. […] Increasing inhibitor concentrations cause a decrease in the Vmax of α-glucosidase.
The mechanisms of inhibition of alpha-glucosidase by 2 were determined by Lineweaver–Burk plots (Microsoft Excel 2010, Washington, USA), using methods similar to those reported in the literature.[40] Enzyme inhibition due to various concentrations of 2 was evaluated by monitoring the effects of different concentrations of the substrate. For Lineweaver–Burk double reciprocal plots 1/enzyme velocity (1/V) vs. 1/substrate concentration (1/[S]), the inhibition type was determined using various concentrations of pNPG (1 mM, 2 mM, and 4 mM) as a substrate in the presence of different concentrations of the test compound (0, 3.61, 7.22, 14.44, and 28.88 μM for 2). The experiments were carried out in three replicates. The mixtures were incubated at 37 °C, and the optical density was measured at 405 nm every 1 min for 30 min with the ELx800 Absorbance Microplate Reader (BioTek Instruments, Inc., Vermont, USA). The optimal concentrations of the tested compound were chosen based on the IC50 value. The inhibition constants were obtained graphically from secondary plots (Microsoft Excel 2010, Washington, USA).

| IC50 (yeast alpha-glucosidase) | Compound | further results |
| --- | --- | --- |
| 57.3 ± 1.9 µM | Oc1cc2cc(c1O)Oc1ccc(cc1)CCc1cccc(O)c1Oc1cccc(c1)CC2 [Compound 1, Marchantin A] |  |
| 151 ± 2.9 µM | Oc1cccc2c1Oc1cccc(c1)CCc1cc(c(O)c(O)c1Br)Oc1ccc(cc1)CC2 [Compound 1a, 5′-Bromomarchantin A] | Alpha-glucosidase inhibition (in words) (yeast alpha-glucosidase; qualitative statement): weaker activity than the parent compound 1 |
| 28.9 ± 0.2 µM | Oc1ccc2cc1Oc1ccc(cc1)CCc1ccc(c(O)c1)-c1c(O)cccc1CC2 [Compound 2, Isoriccardin C] | Type of inhibition (alpha-glucosidase; Lineweaver–Burk plots, same Km, decreasing Vmax): non-competitive inhibitor; also recorded: non-competitive type; Ki (alpha-glucosidase; pNPG substrate 1, 2, 4 mM, 37 °C, secondary plot of slope versus concentration, read-out: Ki (inhibition constant)): 67.1 ± 1.28 µM |
| 42.2 ± 1.4 µM | Oc1ccc2c(c1)CCc1ccc(cc1)Oc1cc(ccc1O)CCc1ccc-2c(O)c1 [Compound 3, Riccardin C] |  |
| 131 ± 3 µM | COC1Cc2cccc(c2)Oc2c(ccc(O)c2O)CCc2ccc(cc2)Oc2cc1cc(O)c2O (stereo not drawn) [Compound 4, Marchantin K] |  |
| 130 ± 2 µM | Oc1ccc(CCc2cccc(O)c2)cc1 [Compound 5, Lunularin] |  |
| > 200 µM | COc1cc(OC)c2c(c1)[C@@H](Cc1ccc(OC)c(OC)c1)OC2=O [Compound 6, 3R-(3,4-Dimethoxybenzyl)-5,7-dimethoxyphthalide] |  |
| > 200 µM | COc1cc(OC)c2c(c1)[C@H](Cc1cc(OC)c(OC)c(OC)c1)OC2=O [Compound 7, Marchatoside] |  |
| 75.1 ± 1.8 µM | CC1(C)CC[C@]2(C)CC[C@]3(C)C(=CCC4[C@@]5(C)CCC(=O)C(C)(C)C5CC[C@]43C)C2C1 (stereo partly drawn) [Compound 10, 12-Oleanene-3-one] |  |
| 101 ± 3 µM | C[C@@H]1CC[C@]2(C(=O)O)CC[C@]3(C)C(=CC(=O)C4[C@@]5(C)CCC(=O)C(C)(C)C5CC[C@]43C)C2[C@H]1C (stereo partly drawn) [Compound 11, 3,11-Dioxoursolic acid] |  |
| 86 ± 6.9 µM | C[C@H]1[C@H](C)CC[C@]2(C(=O)O)CC[C@]3(C)C(=CC[C@@H]4[C@@]5(C)CC[C@H](O)C(C)(C)[C@@H]5CC[C@]43C)[C@H]12 [Compound 12, Ursolic acid] |  |
| > 200 µM | Vitexilactone [Compound 9] |  |
